Measured values reported in patent publication US3957978A, “Phosphonium anti-parasitics” (American Cyanamid Company, priority 1975, dated 1976).

Tested on: Nematospiroides dubius
Experiment: Evaluation (Efficacy) Test in Mice, Nematospiroides dubius
Assay type: in vivo
Conditions: Heligmosomoides polygyrus, po, read-out: % Efficacy N.d.; for inhibition in vivo at 50 mg/kg / inhibition in vivo at 100 mg/kg: single oral dose
From the text: The primary target parasite of this test is Nematospiroides dubius (Family: Heligmosomidae), which is phylogenetically related to certain economically important parasites of domestic and farm animals. Mice are orally inoculated with 20 to 30 infective N. dubius larvae. Mixed infections are obtained by subsequent inoculation with Aspicularis tetraptera and Hymenolepis nana. Eighteen days after inoculation the mice are divided into groups of four. Each group receives one compound at a specified dose rate, either as a single gavage dose or fed continually in the feed. Four groups of five mice each are utilized as infected, untreated controls. […] Those mice receiving single oral doses (SOD) or a single subcutaneous injection (Sc) of 5 mg./kg. to 100 mg./kg. of animal body weight of the compound under test are treated 22 days after inoculation. Eight days after start of treatment (drug diet) and 4 days post treatment (single dose SOD or Sc), the mice are necropsied, the worms recovered and counted. Percent efficacy for Nematospiroides is calculated using the formula: % Efficacy Equals [formula]
The diet used in the test procedures is a standard commercial mouse chow containing meat and bone meal, dried skimmed milk, wheat germ meal, fish meal, animal liver meal, dried beet pulp, ground extended corn, oat middlings, soybean meal, dehydrated alfalfa meal, cane molasses. animal fat preserved with BHA, vitamin B-12 supplement, calcium panthotenate, choline chloride, folic acid, riboflavin supplement, brewer's dried yeast, thiamine, niacin, vitamin A supplement, D activated plant sterol, vitamin E supplement, dicalcium phosphate, iodized salt, ferric ammonium citrate, iron oxide, manganous oxide, cobalt carbonate, copper oxide and zinc oxide; and the desired level of test compound.
When the drug is administered as a single oral dose, the drug is weighed and suspended in 0.2% agar, thoroughly mixed and orally introduced at the required volume.

## Cc1ccc(P(=C[P+](c2ccccc2)(c2ccccc2)c2ccc(C)cc2)(c2ccccc2)c2ccccc2)cc1 [Type II, R1 p-tolyl, X Br]
168 h, drug diet, 0.1 % diet, 7 days
  inhibition in vivo at 0.1 %: 53%
  inhibition in vivo at 50 mg/kg: 36%
  inhibition in vivo at 100 mg/kg: 89%

## COc1cccc(CC(=P(c2ccccc2)(c2ccccc2)c2ccccc2)[P+](c2ccccc2)(c2ccccc2)c2ccccc2)c1 [Type II, R2 m-methoxybenzyl, X Cl]
168 h, drug diet, 0.0125 % diet, 7 days
  inhibition in vivo at 0.0125 %: 58%
168 h, drug diet, 0.025 % diet, 7 days
  inhibition in vivo at 0.025 %: 88%
168 h, drug diet, 0.05 % diet, 7 days
  inhibition in vivo at 0.05 %: 100%
  inhibition in vivo at 50 mg/kg: 58%
  inhibition in vivo at 100 mg/kg: 76%
